Measurements published in US10029984B2, “Mono- or di-substituted indole derivatives as dengue viral replication inhibitors” (Janssen Pharmaceuticals, Inc., priority 2015, dated 2018).
pEC50: −log10 of the molar value.

Legend:
Vero cells = test: in vitro; assay type: cell-based; settings: African green monkey
Description: (§1) In parallel, the toxicity of the compounds was assessed on the same plates. Once the read-out for the eGFP signal was done, 10 μL of resazurin, a cell viability stain, was added to all wells of the 384-well plates. The resazurin assay is based on the reduction of the blue resazurin by NADH, produced by the cells, into the highly fluorescent product, resorufin. The formation of pink fluorescent resorufin is directly related to the number of viable cells in the well. The plates were incubated for an additional 5 hours in a fully humidified incubator (37° C., 5% CO2). Next, the plates were measured on an Infinite reader (Tecan) using an excitation wavelength of 530 nm. The half maximal cytotoxic concentration (CC50) was also determined, defined as the concentration required to reduce the resazurin conversion by 50% compared to that of the cell control wells. Finally, the selectivity index (SI) was determined for the compounds, which was calculated as followed: SI=CC50/EC50.

DENV-2 16681 strain = test: DENV-2 antiviral assay (eGFP-labeled virus in Vero cells); assay type: cell-based, Dengue virus; settings: DENV-2 16681 eGFP, MOI 0.5, 3 days
Description: The antiviral activity of all the compounds of the invention was tested against DENV-2 16681 strain which was labeled with enhanced green fluorescent protein (eGPF; Table 1). The culture medium consists of minimal essential medium supplemented with 2% of heat-inactivated fetal calf serum, 0.04% gentamycin (50 mg/mL) and 2 mM of L-glutamine. Vero cells, obtained from ECACC, were suspended in culture medium and 25 μL was added to 384-well plates (2500 cells/well), which already contain the antiviral compounds. Typically, these plates contain a 4-fold serial dilution of 9 dilution steps of the test compound at 200 times the final concentration in 100% DMSO (200 nL). In addition, each compound concentration is tested in quadruplicate (final concentration range: 25 μM-0.00038 μM). Finally, each plate contains wells which are assigned as virus controls (containing cells and virus in the absence of compound), cell controls (containing cells in the absence of virus and compound) and medium controls (containing medium in the absence of cells, virus and compounds). To the wells assigned as medium control, 25 μL of culture medium was added instead of Vero cells. Once the cells were added to the plates, the plates were incubated for 30 minutes at room temperature to allow the cells to distribute evenly within the wells. Next, the plates were incubated in a fully humidified incubator (37° C., 5% CO2) until the next day. Then, DENV-2 strain 16681, labeled with eGFP, was added at a multiplicity of infection (MOI) of 0.5. Therefore, 15 μL of virus suspension was added to all the wells containing test compound and to the wells assigned as virus control. In parallel, 15 μL of culture medium was added to the medium and cell controls. Next, the plates were incubated for 3 days in a fully humidified incubator (37° C., 5% CO2). At the day of the read out, the eGFP fluorescence was measured using an automated fluorescence microscope at 488 nm (blue laser). Using an in-house LIMS system, inhibition dose response curves for each compound were calculated and the half maximal effective concentration (EC50) was determined. Therefore, the percent inhibition (I) for every test concentration is calculated using the following formula: I=100*(ST−SCC)/(SVC−SCC); ST, SCC and SVC are the amount of eGFP signal in the test compound, cell control and virus control wells, respectively. The EC50 represents the concentration of a compound at which the virus replication is inhibited with 50%, as measured by a 50% reduction of the eGFP fluorescent intensity compared to the virus control. The EC50 is calculated using linear interpolation.

in vitro = assay type: cell-based; settings: African green monkey, CC50
Description: as §1

COc1cc(NC(C(=O)c2c[nH]c3cc(F)c(F)cc23)c2ccc(F)cc2OC)cc(S(C)(=O)=O)c1 (single isomer, unassigned) [Enantiomer 7B, 1-(5,6-difluoro-1H-indol-3-yl)-2-(4-fluoro-2-methoxyphenyl)-2-((3-methoxy-5-(methylsulfonyl)phenyl)amino)ethanone]
CC50 (Vero cells): 9600 nM | pEC50 (DENV-2 16681 strain; listed as 7B): 7.37

COc1cc(NC(C(=O)c2c[nH]c3c(Cl)c(OC)ccc23)c2ccc(F)cc2OC)cc(S(C)(=O)=O)c1 (racemic) [Compound 12, 1-(7-chloro-6-methoxy-1H-indol-3-yl)-2-(4-fluoro-2-methoxyphenyl)-2-((3-methoxy-5-(methylsulfonyl)phenyl)amino)ethanone]
CC50 (in vitro): > 25000 nM | pEC50 (DENV-2 16681 strain; Dengue virus, DENV2, Vero, 72 h): 9.22

COc1cc(NC(C(=O)c2c[nH]c3ccc(C)cc23)c2ccc(F)cc2OC)cc(S(C)(=O)=O)c1 (single isomer, unassigned) [Enantiomer 15B, 2-(4-fluoro-2-methoxyphenyl)-2-((3-methoxy-5-(methylsulfonyl)phenyl)amino)-1-(5-methyl-1H-indol-3-yl)ethanone]
CC50 (Vero cells): 17000 nM | pEC50 (DENV-2 16681 strain; listed as 15B): 7.14

COc1cc(NC(C(=O)c2c[nH]c3cc(OC)c(C)cc23)c2ccc(F)cc2OC)cc(S(C)(=O)=O)c1 (single isomer, unassigned) [Enantiomer 10A, 2-(4-fluoro-2-methoxyphenyl)-2-((3-methoxy-5-(methylsulfonyl)phenyl)amino)-1-(6-methoxy-5-methyl-1H-indol-3-yl)ethanone]
CC50 (Vero cells): 18000 nM | pEC50 (DENV-2 16681 strain; listed as 10A): 7.27

COc1cc(NC(C(=O)c2c[nH]c3cc(Cl)ccc23)c2ccc(F)cc2OC)cc(S(C)(=O)=O)c1 (single isomer, unassigned) [Enantiomer 4B, 1-(6-chloro-1H-indol-3-yl)-2-(4-fluoro-2-methoxyphenyl)-2-((3-methoxy-5-(methylsulfonyl)phenyl)amino)ethanone]
CC50 (Vero cells): 16000 nM | pEC50 (DENV-2 16681 strain; listed as 4B): 7.74

COc1cc(NC(C(=O)c2c[nH]c3cc(F)ccc23)c2ccc(F)cc2OC)cc(S(C)(=O)=O)c1 (single isomer, unassigned) [Enantiomer 1B, 1-(6-fluoro-1H-indol-3-yl)-2-(4-fluoro-2-methoxyphenyl)-2-((3-methoxy-5-(methylsulfonyl)phenyl)amino)ethanone]
CC50 (Vero cells): 12000 nM | pEC50 (DENV-2 16681 strain; listed as 1B): 7.30

COc1cc(NC(C(=O)c2c[nH]c3c(Cl)c(OC)ccc23)c2ccc(F)cc2OC)cc(S(C)(=O)=O)c1 (single isomer, unassigned) [Enantiomer 12B, 1-(7-chloro-6-methoxy-1H-indol-3-yl)-2-(4-fluoro-2-methoxyphenyl)-2-((3-methoxy-5-(methylsulfonyl)phenyl)amino)ethanone]
CC50 (Vero cells): > 25000 nM | pEC50 (DENV-2 16681 strain; listed as 12B): 7.68

COc1cc(NC(C(=O)c2c[nH]c3cc(C)c(F)cc23)c2ccc(F)cc2OC)cc(S(C)(=O)=O)c1 (single isomer, unassigned) [Enantiomer 9B, 2-(4-fluoro-2-methoxyphenyl)-1-(5-fluoro-6-methyl-1H-indol-3-yl)-2-((3-methoxy-5-(methylsulfonyl)phenyl)amino)ethanone]
CC50 (Vero cells): 21000 nM | pEC50 (DENV-2 16681 strain; listed as 9B): 7.01

COc1cc(NC(C(=O)c2c[nH]c3ccc(C(F)(F)F)cc23)c2ccc(F)cc2OC)cc(S(C)(=O)=O)c1 (single isomer, unassigned) [Enantiomer 17A, 2-(4-fluoro-2-methoxyphenyl)-2-((3-methoxy-5-(methylsulfonyl)phenyl)amino)-1-(5-(trifluoromethyl)-1H-indol-3-yl)ethanone]
CC50 (Vero cells): 14000 nM | pEC50 (DENV-2 16681 strain; listed as 17A): 7.42

COc1cc(NC(C(=O)c2c[nH]c3c(C)c(Cl)ccc23)c2ccc(F)cc2OC)cc(S(C)(=O)=O)c1 (single isomer, unassigned) [Enantiomer 3B, 1-(6-chloro-7-methyl-1H-indol-3-yl)-2-(4-fluoro-2-methoxyphenyl)-2-((3-methoxy-5-(methylsulfonyl)phenyl)amino)ethanone]
CC50 (Vero cells): 11000 nM | pEC50 (DENV-2 16681 strain; listed as 3B): 7.49

COc1cc(NC(C(=O)c2c[nH]c3cc(F)c(C)cc23)c2ccc(F)cc2OC)cc(S(C)(=O)=O)c1 (single isomer, unassigned) [Enantiomer 14B, 2-(4-fluoro-2-methoxyphenyl)-1-(6-fluoro-5-methyl-1H-indol-3-yl)-2-((3-methoxy-5-(methylsulfonyl)phenyl)amino)ethanone]
CC50 (Vero cells): 11000 nM | pEC50 (DENV-2 16681 strain; listed as 14B): 7.39

COc1cc(NC(C(=O)c2c[nH]c3ccc(OC(F)(F)F)cc23)c2ccc(F)cc2OC)cc(S(C)(=O)=O)c1 (single isomer, unassigned) [Enantiomer 18B, 2-(4-fluoro-2-methoxyphenyl)-2-((3-methoxy-5-(methylsulfonyl)phenyl)amino)-1-(5-(trifluoromethoxy)-1H-indol-3-yl)ethanone]
CC50 (Vero cells): 10000 nM | pEC50 (DENV-2 16681 strain; listed as 18B): 8.04

COc1cc(NC(C(=O)c2c[nH]c3cc(OC)c(Cl)cc23)c2ccc(F)cc2OC)cc(S(C)(=O)=O)c1 (single isomer, unassigned) [Enantiomer 16B, 1-(5-chloro-6-methoxy-1H-indol-3-yl)-2-(4-fluoro-2-methoxyphenyl)-2-((3-methoxy-5-(methylsulfonyl)phenyl)amino)ethanone]
CC50 (Vero cells): 22000 nM | pEC50 (DENV-2 16681 strain; listed as 16B): 7.89

COc1cc(NC(C(=O)c2c[nH]c3c(C)c(F)ccc23)c2ccc(F)cc2OC)cc(S(C)(=O)=O)c1 (single isomer, unassigned) [Enantiomer 2B, 2-(4-fluoro-2-methoxyphenyl)-1-(6-fluoro-7-methyl-1H-indol-3-yl)-2-((3-methoxy-5-(methylsulfonyl)phenyl)amino)ethanone]
CC50 (Vero cells): 8000 nM | pEC50 (DENV-2 16681 strain; listed as 2B): 7.26

COc1cc(NC(C(=O)c2c[nH]c3c(F)cc(C)cc23)c2ccc(F)cc2OC)cc(S(C)(=O)=O)c1 (single isomer, unassigned) [Enantiomer 6B, 2-(4-fluoro-2-methoxyphenyl)-1-(7-fluoro-5-methyl-1H-indol-3-yl)-2-((3-methoxy-5-(methylsulfonyl)phenyl)amino)ethanone]
CC50 (Vero cells): 12000 nM | pEC50 (DENV-2 16681 strain; listed as 6B): 6.70

COc1cc(NC(C(=O)c2c[nH]c3c(C)cc(F)cc23)c2ccc(F)cc2OC)cc(S(C)(=O)=O)c1 (single isomer, unassigned) [Enantiomer 8B, 2-(4-fluoro-2-methoxyphenyl)-1-(5-fluoro-7-methyl-1H-indol-3-yl)-2-((3-methoxy-5-(methylsulfonyl)phenyl)amino)ethanone]
CC50 (Vero cells): 11000 nM | pEC50 (DENV-2 16681 strain; listed as 8B): 6.62

COc1cc(NC(C(=O)c2c[nH]c3cc(OC)c(F)cc23)c2ccc(F)cc2OC)cc(S(C)(=O)=O)c1 (single isomer, unassigned) [Enantiomer 11B, 2-(4-fluoro-2-methoxyphenyl)-1-(5-fluoro-6-methoxy-1H-indol-3-yl)-2-((3-methoxy-5-(methylsulfonyl)phenyl)amino)ethanone]
CC50 (Vero cells): > 25000 nM | pEC50 (DENV-2 16681 strain; listed as 11B): 7.26
